Assay [1] relates to Rattus norvegicus. Nature of the assay: Percent change in heart rate expressed in beats / min in anesthetized rats by i.v. administration. In kind it is functional.
The subject of assay [2] is Rattus norvegicus. Nature of the assay: Percent change in diastolic blood pressure (mmHg)in anesthetized rats by i.v. administration. It counts as functional, Artery.
For assay [3], the system named is Rattus norvegicus. Nature of the assay: Maximum rate of rise of the left ventricular isovolumetric pressure (dP/dt, an index of cardiac inotropism in mmHg/sec)in anesthetized rats by i.v. administration. In kind it is functional, Heart left ventricle.
Assay [4] relates to Rattus norvegicus. Nature of the assay: Percent change in systolic blood pressure (mmHg)in anesthetized rats by i.v. administration. In kind it is functional, Artery.
In assay [5] the test system is Rattus norvegicus. Nature of the assay: Percent change in tidal volume expressed in microL in anesthetized rats by i.v. administration. It counts as functional.
Assay [6] concerns Rattus norvegicus. Nature of the assay: Percent change in respiratory frequency (RF) expressed in beats / min in anesthetized rats by i.v. administration. It counts as functional.
Assay [7] deals with Rattus norvegicus. Nature of the assay: Maximum rate of rise of the left ventricular isovolumetric pressure in anesthetized rats by i.v. administration. It counts as functional, Heart left ventricle.

In the case of `NCCc1c[nH]cn1` [HISTAMINE], the Change is listed as -3% in assay [1], -26% in assay [2], -16% in assay [3] and -25% in assay [4].
For `COC(=O)[C@H]1[C@H]2C[C@@H]3c4[nH]c5cc(OC)ccc5c4CCN3C[C@H]2C[C@@H](OC(=O)c2cc(OC)c(OC)c(OC)c2)[C@@H]1OC` [RESERPINE], in that order: -15%, -32%, -22% and -31%.
As for `C[N+](C)(C)CCCCCC[N+](C)(C)C.[Cl-].[Cl-]` [HEXAMETHONIUM CHLORIDE], the Change is reported as -13% in assay [1], -43% in assay [2], -69% in assay [3] and -42% in assay [4].
Turning to `COc1ccc(Cc2nccc3cc(OC)c(OC)cc23)cc1OC` [PAPAVERINE], the Change in assay [1] was -5%; in assay [2], -16%; in assay [3], -19%; in assay [4], -18%.
On to `CC(C)=CCN=C(N)N` [GALEGINE], for which the Change in assay [5] was 31%; in assay [1] it was -27%; in assay [2], -33%; in assay [6], 70%; in assay [4], -27%; in assay [7], 32%.
Turning to `Clc1cccc(Cl)c1NC1=NCCN1` [CLONIDINE], the Change in assay [1] is reported as -15%; in assay [2], -17%; in assay [4], -16%; in assay [7] it was -21%.
The corresponding values for `N=C(N)NCCN1CCCCCCC1` [GUANETHIDINE] are -7%, -24%, -26% and -17%.
As for `CC(C)=CCNC(=N)NCCCCN`, the Change is given as 11% in assay [5]; -4% in assay [1]; -17% in assay [2]; 4% in assay [6]; -11% in assay [4]; 23% in assay [7].
As for `COc1ccc(/C=C/C(=O)NCCCCN=C(N)N)cc1OC`, the Change in assay [5] is 12%; in assay [1] it was 0%; in assay [2] it was -8%; in assay [6], 4%; in assay [4] it was -8%; in assay [7], 11%.
Turning to `COc1ccc(/C=C/C(=O)NCCCC/N=C(\N)NCC=C(C)C)cc1OC`, the Change in assay [5] is listed as 41%; in assay [1] it was 5%; in assay [2], -29%; in assay [6], 21%; in assay [4], -26%; in assay [7] it was 57%.
As for `NCCCCN=C(N)N` [AGMATINE], the Change is listed as 14% in assay [5]; 0% in assay [1]; -10% in assay [2]; 12% in assay [6]; -8% in assay [4]; 16% in assay [7].
